# Data published in patent US20240254119A1 (THIRD HARMONIC BIO, INC., priority 2022, published 2024).
# Assays:
# CYP3A4 = test: Hepatocyte CYP induction assay, CYP3A4 gene expression; assay type: in vitro ADME; conditions: human hepatocytes
# Description: Exemplary compounds were tested for ability to induce CYP3A4 and/or CYP1A2 in hepatocytes. Procedures and results are described below.
# Cryopreserved human hepatocytes were purchased from BioIVT (Baltimore, MD, USA), and they were stored in liquid nitrogen before using. The detailed information of hepatocytes is as follows:
# Fresh dosing solutions of test compounds, and Rifampicin were prepared in the incubation medium on the day of dosing.
# Cryopreserved hepatocytes were thawed and counted to determine yield, viability was measured. Hepatocytes at the concentrations of 0.7 million/mL were transferred to collagen-coated 96-well plates for attachment (0.1 mL viable cells/well). After allowing 4 to 5 hours for attachment of cells, the plating medium was replaced with Incubation Medium containing 2% (v/v) Matrigel™ (sandwich medium) and the hepatocytes were incubated until use.
# All incubations were conducted at 37° C., 5% CO2, and saturated humidity.
# The sandwich medium was removed and the hepatocytes were treated with incubation solutions containing test articles in vehicle (0.1% DMSO), or positive control for 24 hours after the cultures were established. The incubation solution was aspirated and replaced with incubation solution containing the same concentrations of test articles, vehicle, or positive controls for an additional 24 hours. The total treatment period was 48 hours. Triplicate were used for each concentration of test compound and positive control.
# After treatment period of 48 hours, the incubation solution was aspirated. Hepatocytes were washed once with pre-warmed HBSS and incubated with 140 μL of RLT (lysis buffer from Rneasy 96 Kit) supplemented with 1% β-mercaptoethanol. Plates were then stored at ≤−60° C. freezer until RNA analysis.
# Before RNA extraction, the frozen plate was thawed and cell lysates were transferred to 96-well plates. RNA isolation was performed using QIAcube HT System. RNA concentration was measured with NanoDrop ND-2000 spectrophotometer. The purity of RNA preparation was calculated by the ratio of the OD260 nm/OD280 nm and the acceptable range is between 1.8 and 2.2. Reverse transcription was performed to obtain cDNA. Quantification of the selective genes by real time quantitative Polymerase Chain Reaction (qPCR) was performed with TaqMan universal PCR Master Mix on the BIO-RAD CFX 384 Touch Real Time PCR System. The following setting were used: 50° C. for 2 minutes, 95° C. for 10 minutes, 40 cycles of 95° C. for 15 seconds and 60° C. for 1 minute. 18S rRNA was used as the internal standard.
# To account for variation in RNA yields and reverse transcription polymerase chain reaction (RT-PCR), the gene of interest in all samples was normalized to an internal control gene (18S ribosomal RNA) (Cttarget gene−Ct18S=ΔCt).
# The relative quantitation or change in mRNA level of selected genes induced by each test compound was expressed in relation to the vehicle control sample (Δctcompound−ΔCtvehicle=ΔΔCt). Fold changes in gene expression were determined by taking 2 to the power of this value (2^−ΔΔt).
# % of positive control [(fold change in treated sample)−1]/[(fold change in positive control)−1]×100
# Kinetic solubility assay = assay type: physicochemical; conditions: for Solubility (μM): kinetic solubility, 50 mM PB (pH 7.4), shaken 24 hours at RT
# How it was run: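 Test compounds from 10 mM DMSO stock were diluted in 50 mM phosphate buffer, pH 7.4, and shaken for 24 h at RT. After PTFE filtration and centrifugation, filtrate concentration was quantified by UPLC-UV/HPLC-UV against a standard curve.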
# [1] = Three time point assay for plasma, brain and testes distribution after oral dosing; assay type: in vivo, rat; conditions: rat, oral dosing
# Description: Exemplary compounds were tested for distribution in plasma, brain and testes tissue following oral dosing of the compounds in rats. Procedures and results are described below.
# Male SD Rats were group-housed (up to four animals/sex/cage) in polysulfone cages with certified aspen wood bedding during acclimation and study period.
# Certified rodent diet and water was provided to all animals ad libitum, unless fasting for study procedures.
# Appropriate amount of test article was accurately weighed and mixed with an appropriate volume of vehicle to get a clear solution or a uniform suspension; vortexing or sonication in water bath may also be need. Animals were dosed within four hours after the formulation is prepared.
# For PO dosing, the dose formulation was administered via oral gavage following facility SOPs. The dose volume was determined by the animals' body weight collected on the morning of dosing day. The dose was 10 mg/kg.
# Each blood collection (about 1 mL per time point at one or more of 0.5 h, 2 h, 3 h, 5.3 h, and 7 h) was performed from jugular vein or other suitable site of each animal into pre-chilled commercial EDTA-K2 tubes and placed on wet ice until centrifugation.
# Blood samples were processed for plasma by centrifugation at approximately 4° C., 3,200 g for 10 min. Plasma was collected respectively and transferred into pre-labeled 96 well plate or polypropylene tubes, quick frozen over dry ice and kept at −60° C. or lower until LC-MS/MS analysis.
# Rat brain was perfused with PBS to remove blood before harvest.
# After perfusion, brain and testis were homogenized using homogenizing buffer (15 mM PBS (pH7.4):MeOH=2:1) at the ratio of 1:9 (1 g tissue with 9 mL buffer, the dilution ratio is 10). The brain homogenate was kept at −60° C. or lower until LC-MS/MS analysis. General sample processing procedure (brain homogenate & testis homogenate) using 96-well plate: • 1). An aliquot of 40 μL unknown sample, calibration standard, quality control and dilution quality control (if have), single blank, and double blank sample was added to the 96-well plate respectively; • 2). Each sample (except the double blank) was quenched with 400 μL of IS1 respectively (double blank sample was quenched with 400 μL of I), and then the mixture was vortex-mixed for 10 min at 800 rpm and centrifuged for 15 min at 3220×g, 4° C.; • 3). An aliquot of 50 μL supernatant was transferred to another clean 96-well plate and centrifuged for 5 min at 3220×g, 4° C., then the supernatant was directly injected for LC-MS/MS analysis.
# • 1. A LC-MS/MS method for the quantitative determination of test compound in biological matrix was developed under Non-GLP compliance. • 2. A calibration curve with at least 6 non-zero calibration standards was applied for the method including LLOQ. • 3. A set of QCs consisting of low, middle, and high concentrations were applied for the method. • 4. N in 1 cassette LC-MS/MS method was developed for samples coming from different studies and the interference among all cassette analytes was evaluated during the method development. • 5. Cassette administration assay was performed if the mass difference (Δmass) among different analytes was more than 4 Da. In this case, interference evaluation was not necessary.
# • 1. If sample number within a batch was ≤12, at least one set of standard curve separated with two parts through begin and end of the sequence, was included in the run, and QCs were not required. The recommended injection order was C8, C6, C4, C2, study samples, C7, C5, C3, C1. • 2. If sample number within a batch was >12, one standard curve and two sets of QCs with low, middle and high concentrations were applied for bioanalysis. Meanwhile, QCs number should be more than 5% of study sample number. • 3. Samples with the same types of matrix in different studies were quantified in one analysis run by using the developed N in 1 cassette LC-MS/MS method. • 4. […]
# PDGFRα = molecular target: T1, PDGFRα (Homo sapiens, UniProt P16234); test: Caliper biochemical assay, PDGFRα; conditions: Table 6
# T1 construct: purchased Millipore 14-467 (lot 26321_ACTI)
# T1 sequence (P16234 24-1089): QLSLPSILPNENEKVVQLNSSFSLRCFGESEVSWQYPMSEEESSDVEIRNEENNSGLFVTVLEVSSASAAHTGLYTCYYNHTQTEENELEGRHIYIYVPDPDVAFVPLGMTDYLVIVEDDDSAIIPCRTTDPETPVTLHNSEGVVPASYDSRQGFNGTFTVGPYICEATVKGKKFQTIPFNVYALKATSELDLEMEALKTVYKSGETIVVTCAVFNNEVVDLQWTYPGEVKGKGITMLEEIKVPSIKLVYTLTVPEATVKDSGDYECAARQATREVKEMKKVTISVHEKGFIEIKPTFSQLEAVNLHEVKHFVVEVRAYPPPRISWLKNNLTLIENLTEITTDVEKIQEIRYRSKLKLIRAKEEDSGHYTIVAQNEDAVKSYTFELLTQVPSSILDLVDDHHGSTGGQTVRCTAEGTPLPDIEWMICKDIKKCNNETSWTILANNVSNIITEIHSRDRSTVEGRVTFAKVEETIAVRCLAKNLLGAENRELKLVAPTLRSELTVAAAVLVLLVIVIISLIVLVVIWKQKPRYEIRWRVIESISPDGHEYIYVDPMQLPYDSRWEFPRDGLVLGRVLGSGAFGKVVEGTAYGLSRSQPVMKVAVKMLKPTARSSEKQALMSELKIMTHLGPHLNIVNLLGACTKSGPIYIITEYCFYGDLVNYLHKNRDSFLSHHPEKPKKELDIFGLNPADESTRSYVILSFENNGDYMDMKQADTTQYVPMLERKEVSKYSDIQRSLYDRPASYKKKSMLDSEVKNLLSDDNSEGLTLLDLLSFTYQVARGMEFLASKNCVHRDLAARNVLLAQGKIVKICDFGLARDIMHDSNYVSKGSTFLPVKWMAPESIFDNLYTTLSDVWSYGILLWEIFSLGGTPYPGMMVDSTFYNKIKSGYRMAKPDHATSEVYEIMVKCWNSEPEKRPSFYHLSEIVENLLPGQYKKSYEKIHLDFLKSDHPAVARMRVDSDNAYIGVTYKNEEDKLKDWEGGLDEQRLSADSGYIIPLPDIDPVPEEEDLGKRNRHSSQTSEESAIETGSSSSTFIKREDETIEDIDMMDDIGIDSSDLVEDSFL
# How it was run: (§1)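 Kinase, FAM-labelled peptide substrate, ATP and Mn^2+ incubated with compound for 3 h at 25° C, then quenched with EDTA buffer. Substrate and phosphorylated product separated by microfluidic electrophoresis and quantified by fluorescence intensity; no-enzyme wells define 100% inhibition.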
# CSF-1R = molecular target: T2, CSF-1R (Homo sapiens, UniProt P07333); test: Caliper biochemical assay, CSF-1R; conditions: Table 6
# T2 construct: purchased Invitrogen PV3249 (lot 662393N)
# T2 sequence (P07333 20-972): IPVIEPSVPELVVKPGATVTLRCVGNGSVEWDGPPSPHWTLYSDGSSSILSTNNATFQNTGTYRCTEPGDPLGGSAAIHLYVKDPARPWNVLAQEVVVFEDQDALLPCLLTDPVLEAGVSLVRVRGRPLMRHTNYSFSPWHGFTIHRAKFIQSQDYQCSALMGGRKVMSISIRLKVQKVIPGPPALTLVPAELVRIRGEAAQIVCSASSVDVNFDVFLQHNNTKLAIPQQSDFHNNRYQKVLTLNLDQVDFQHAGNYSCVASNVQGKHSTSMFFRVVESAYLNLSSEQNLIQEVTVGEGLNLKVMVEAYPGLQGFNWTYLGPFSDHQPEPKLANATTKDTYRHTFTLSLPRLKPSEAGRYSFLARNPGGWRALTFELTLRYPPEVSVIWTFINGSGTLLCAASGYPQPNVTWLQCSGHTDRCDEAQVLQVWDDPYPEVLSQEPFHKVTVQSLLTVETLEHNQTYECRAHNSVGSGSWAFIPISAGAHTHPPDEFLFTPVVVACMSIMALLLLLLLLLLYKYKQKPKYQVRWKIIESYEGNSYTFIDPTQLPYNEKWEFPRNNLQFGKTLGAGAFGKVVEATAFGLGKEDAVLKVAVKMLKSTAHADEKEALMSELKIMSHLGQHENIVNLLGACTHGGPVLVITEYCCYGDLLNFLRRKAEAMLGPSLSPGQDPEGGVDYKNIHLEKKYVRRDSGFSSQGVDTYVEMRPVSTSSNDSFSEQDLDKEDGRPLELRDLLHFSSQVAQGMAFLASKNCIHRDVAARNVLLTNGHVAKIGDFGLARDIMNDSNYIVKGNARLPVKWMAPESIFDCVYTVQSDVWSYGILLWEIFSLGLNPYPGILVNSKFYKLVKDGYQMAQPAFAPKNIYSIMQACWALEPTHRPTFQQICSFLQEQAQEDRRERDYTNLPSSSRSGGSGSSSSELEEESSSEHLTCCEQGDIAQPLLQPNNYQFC
# How it was run: as §1
# wtKIT = molecular target: T3, wtKIT (Homo sapiens, UniProt P10721); test: Caliper biochemical assay, wtKIT; conditions: Table 6, read-out: KIT Biochemical IC50 avg
# T3 construct: 1888289AM in the reaction mixtures
# T3 sequence (P10721 26-976): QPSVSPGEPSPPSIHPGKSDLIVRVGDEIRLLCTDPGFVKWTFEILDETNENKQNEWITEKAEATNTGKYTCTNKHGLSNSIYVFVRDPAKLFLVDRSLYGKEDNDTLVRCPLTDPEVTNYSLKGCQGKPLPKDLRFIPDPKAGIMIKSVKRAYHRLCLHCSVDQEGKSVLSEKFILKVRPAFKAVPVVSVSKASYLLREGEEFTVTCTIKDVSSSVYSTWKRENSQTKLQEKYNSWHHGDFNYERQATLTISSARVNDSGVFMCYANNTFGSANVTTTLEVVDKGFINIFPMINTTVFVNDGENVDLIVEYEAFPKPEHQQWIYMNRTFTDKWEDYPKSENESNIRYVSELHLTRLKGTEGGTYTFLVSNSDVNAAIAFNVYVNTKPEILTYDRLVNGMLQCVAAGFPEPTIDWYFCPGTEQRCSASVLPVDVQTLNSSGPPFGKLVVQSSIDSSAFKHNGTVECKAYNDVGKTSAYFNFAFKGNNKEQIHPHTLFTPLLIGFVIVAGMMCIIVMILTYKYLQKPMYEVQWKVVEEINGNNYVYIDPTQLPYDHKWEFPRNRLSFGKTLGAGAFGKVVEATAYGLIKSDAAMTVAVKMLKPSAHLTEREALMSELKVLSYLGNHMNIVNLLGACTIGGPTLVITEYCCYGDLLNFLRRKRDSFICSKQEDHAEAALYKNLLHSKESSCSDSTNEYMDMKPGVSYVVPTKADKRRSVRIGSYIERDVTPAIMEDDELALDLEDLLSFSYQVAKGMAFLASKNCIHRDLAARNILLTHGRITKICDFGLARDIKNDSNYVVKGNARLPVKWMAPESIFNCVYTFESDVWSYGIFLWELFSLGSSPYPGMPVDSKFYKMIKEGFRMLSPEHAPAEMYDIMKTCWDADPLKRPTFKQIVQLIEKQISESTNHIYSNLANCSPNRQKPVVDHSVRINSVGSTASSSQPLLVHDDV
# How it was run: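 Enzyme (5.0 nM wtKIT), 1 μM FAM-labelled peptide, 400 μM ATP and 10 mM MnCl2 in HEPES pH 7.5 with 1% DMSO, incubated 3 h at 25° C. EDTA quench; substrate and phosphoproduct separated by microfluidic electrophoresis and quantified by fluorescence.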
smiles,measurement,setting,value
"Cc1ccc(-c2noc(CC(O)C(F)F)n2)cc1NC(=O)c1cnn2ccccc12 (single isomer, unassigned) [Compound I-39]",CYP 3A4 induction mRNA: Mean fold at 10 μM,CYP3A4; donor four,++ (induction fold of greater than 2-fold to less than or equal to 3-fold)
same,Solubility (μM),Kinetic solubility assay,**** (a solubility less than or equal to 2 μM)
"COc1ccn2c(C(=O)Nc3cc(-c4noc(CC(O)C(F)F)n4)ccc3C)cnc2c1 (single isomer, unassigned) [Compound I-40]",Brain concentration,[1]; time point 0.5 h,63.2 ng/g
same,Kp brain/plasma,[1]; time point 0.5 h,0.09
same,Kp testes/plasma,[1]; time point 0.5 h,0.17
same,Plasma concentration,[1]; time point 0.5 h,712 ng/mL
same,Testes concentration,[1]; time point 0.5 h,123 ng/g
same,Brain concentration,[1]; time point 2 h,144 ng/g
same,Kp brain/plasma,[1]; time point 2 h,0.08
same,Kp testes/plasma,[1]; time point 2 h,0.32
same,Plasma concentration,[1]; time point 2 h,1770 ng/mL
same,Testes concentration,[1]; time point 2 h,568 ng/g
same,Brain concentration,[1]; time point 7 h,65.4 ng/g
same,Kp brain/plasma,[1]; time point 7 h,0.09
same,Kp testes/plasma,[1]; time point 7 h,0.41
same,Plasma concentration,[1]; time point 7 h,764 ng/mL
same,Testes concentration,[1]; time point 7 h,300 ng/g
same,CYP 3A4 induction mRNA: Mean fold at 10 μM,CYP3A4; donor five,++ (induction fold of greater than 2-fold to less than or equal to 3-fold)
same,CYP 3A4 induction mRNA: Mean fold at 10 μM,CYP3A4; donor one,+++ (induction fold of greater than 3-fold to less than or equal to 10-fold)
same,Solubility (μM),Kinetic solubility assay,**** (a solubility less than or equal to 2 μM)
"Cc1ccc(-c2noc(C3CC(F)(F)C3)n2)cc1NC(=O)c1cnc2ccccn12 [Compound A, reference compound]",CYP 3A4 induction mRNA: Mean fold at 10 μM,CYP3A4; donor two,+++ (induction fold of greater than 3-fold to less than or equal to 10-fold)
same,solubility at 24 h,"Kinetic solubility assay; phosphate buffer, pH 7.4, aqueous buffer, kinetic from dmso stock",≤ 2 µM
"COC(=O)N1CC(c2nc(-c3ccc(C)c(NC(=O)c4cnn5ccccc45)c3)no2)C1 [Compound B, reference compound]",CYP 3A4 induction mRNA: Mean fold at 10 μM,CYP3A4; donor four,++ (induction fold of greater than 2-fold to less than or equal to 3-fold)
"CCCS(=O)(=O)N1CC(c2nc(-c3ccc(C)c(NC(=O)c4cnc5ccccn45)c3)no2)C1 [Compound C, reference compound]",CYP 3A4 induction mRNA: Mean fold at 10 μM,CYP3A4; donor four,+++ (induction fold of greater than 3-fold to less than or equal to 10-fold)
Cc1ccc(-c2noc([C@H]3C[C@@H]3F)n2)cc1NC(=O)c1cnc2cc(CC(F)(F)F)ccn12 [Compound I-45],CYP 3A4 induction mRNA: Mean fold at 10 μM,CYP3A4; donor four,++ (induction fold of greater than 2-fold to less than or equal to 3-fold)
same,Solubility (μM),Kinetic solubility assay,**** (a solubility less than or equal to 2 μM)
COc1ccn2c(C(=O)Nc3cc(-c4noc(C5COC5)n4)ccc3C)cnc2c1 [Compound I-51],CYP 3A4 induction mRNA: Mean fold at 10 μM,CYP3A4; donor four,++ (induction fold of greater than 2-fold to less than or equal to 3-fold)
same,Solubility (μM),Kinetic solubility assay,**** (a solubility less than or equal to 2 μM)
CCc1nc(-c2ccc(C)c(NC(=O)c3cnc4ccccn34)c2)no1 [Compound I-283],IC50,PDGFRα,5000 to 30000 nM
same,CYP 3A4 induction mRNA: Mean fold at 10 μM,CYP3A4; donor two,++++ (induction fold of greater than 10-fold)
same,Solubility (μM),Kinetic solubility assay,** (a solubility greater than 10 μM and less than or equal to 50 μM)
same,IC50,CSF-1R,≤ 50 nM
same,IC50,wtKIT,≤ 50 nM
